Key:
GST-tag full length MDM2 = GST-tag full length MDM2 (Homo sapiens (Human), UniProt Q00987); assay: MDM2-p53 TR-FRET Binding Assays; settings: MDM2 / biotin p53 peptide
Description: MDM2-p53 TR-FRET Binding Assays
Examples are listed in the following.

SJSA-1 = assay: Cell proliferation inhibition (CCK-8) against SJSA-1; assay type: cell-based; settings: Homo sapiens, SJSA-1, 120 h, SJSA-1 human osteosarcoma cells, 5 days
Experimental: Cellular data of selected compounds against SW480 and SJSA-1 was conducted according to the following protocol.
Cells in the logarithmic growth phase were seeded into 96-well plates (Corning, 3599; 180 μL/well; 3000 cells/well for both SW480 and SJSA-1 cell lines) and cultured in an incubator (Thermo, 3111) for 24 h. Cells were then treated in triplicate by adding 20 μL/well solution containing different concentrations of the tested compounds in 5% CO2 at 37° C. for 5 days. After that, cells were treated for additional 4 h by adding 10 μL/well Cell Counting Kit-8 (CCK-8; DojinDo, CK04) solution. Finally, the absorbance was read at 450 nm with a microplate reader spectra-MAX190 (Molecular Devices, Sunnyvale, Calif.). The IC50 value was determined with SofeMax Pro, a software equipped in this reader. The cell proliferation inhibition rate was calculated as: proliferation inhibition (%)=[1-(A450 treated/A450 control)]×100%.
All the tested compounds could be dissolved in DMSO at 10^−2 M (as stock solution). […] The compounds were diluted at 9 3-fold serial concentrations beginning at the initial concentration of 10 μM (i.e., the highest final concentration to treat the cells). The detailed drug dilution protocol is: Add 5 μL stock solution (10^−2 M) into 495 μL medium, transfer 125 μL of the resulting solution (100 μM) into 250 μL medium, and repeat this till the 9th resulting concentration of 15.2 nM. Pipet 20 μL of each drug dilution into cell plates.

Chain of GST-tag full length MDM2 (Q00987 whole entry): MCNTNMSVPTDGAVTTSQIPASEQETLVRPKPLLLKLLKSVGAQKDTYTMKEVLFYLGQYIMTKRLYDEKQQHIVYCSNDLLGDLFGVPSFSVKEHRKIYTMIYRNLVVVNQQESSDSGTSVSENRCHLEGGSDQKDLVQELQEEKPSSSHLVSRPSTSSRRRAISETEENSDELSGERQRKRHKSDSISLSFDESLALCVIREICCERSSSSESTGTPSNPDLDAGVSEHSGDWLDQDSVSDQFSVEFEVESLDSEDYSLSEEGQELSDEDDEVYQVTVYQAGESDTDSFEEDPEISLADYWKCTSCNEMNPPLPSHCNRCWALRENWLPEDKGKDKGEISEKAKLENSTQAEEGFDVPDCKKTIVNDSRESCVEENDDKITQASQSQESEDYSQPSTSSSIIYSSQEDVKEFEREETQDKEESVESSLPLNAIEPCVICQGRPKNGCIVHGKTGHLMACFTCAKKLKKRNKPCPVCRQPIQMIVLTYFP

IC50 (GST-tag full length MDM2): ≤ 7.2 nM
IC50 (SJSA-1): ≤ 20 nM
Compound: COc1cc(C(N)=O)ccc1NC(=O)[C@@H]1N[C@@H](CC2(CF)CC2)[C@@]2(C(=O)Nc3cc(Cl)ccc32)[C@H]1c1cccc(Cl)c1F [Example 77, (2′R,3R,3′S,5′S)-N-(4-carbamoyl-2-methoxy-phenyl)-6-chloro-3′-(3-chloro-2-fluoro-phenyl)-5′-[[1-(fluoromethyl)cyclopropyl]methyl]-2-oxo-spiro[indoline-3,4′-pyrrolidine]-2′-carboxamide]
